# Experiments:
# [1] = test system: acute inflammation of mice ear caused by dimethylbenzene; test: Mice ear inflammation caused by dimethylbenzene; type: in vivo, Kunming mice; conditions: for Difference (mg) between left and right ear: 4 days, 2 h after dimethylbenzene, n=10
# Description: Experimental animal: Kunming mice, body weight 18-22 g.
# Method of administration: intraperitoneal injection. The doses of wedelolactone were 12.5 mg/kg and 25 mg/kg, respectively; the negative control used 0.5% CMC; the positive control used ibuprofen (25 mg/kg).
# Method of experiment: The animals were divided randomly into 4 groups based on their body weights, 10 mice each group. The mice were administered with the test compound for 4 continuous days. On Day 4, both sides of the right ears of the mice were daubed evenly with 50 μl dimethylbenzene 2 hours after the administration. The left ears were not treated. The mice were left for 2 hours and then sacrificed by cervical dislocation. The ear specimens were obtained by punching both ears with a 8 mm hole-puncher. The specimens were weighed and the differences between the left and the right ears were used to evaluate the effect of the compound on the inflammation.
# [2] = test system: adjuvant-induced arthritis of rats; test: Adjuvant-induced arthritis of rats; type: in vivo, Male Wistar rats; conditions: for Left front paw thickness, Day 5 / Right front paw thickness, Day 5 / Right hind paw thickness, Day 5 / Right hind paw volume, Day 5 / Left hind paw thickness, Day 5 / Left hind paw volume, Day 5: day 5 after administration; for Left hind paw thickness, Day 5 / Left hind paw volume, Day 5 / Left hind paw thickness, Day 10 / Left hind paw volume, Day 10 / Left hind paw thickness, Day 15 / Left hind paw volume, Day 15 / Left hind paw thickness, Day 19 / Left hind paw volume, Day 19: adjuvant-injected paw; for Left front paw thickness, Day 10 / Right front paw thickness, Day 10 / Right hind paw thickness, Day 10 / Right hind paw volume, Day 10 / Left hind paw thickness, Day 10 / Left hind paw volume, Day 10: day 10 after administration; for Left front paw thickness, Day 15 / Right front paw thickness, Day 15 / Right hind paw thickness, Day 15 / Right hind paw volume, Day 15 / Left hind paw thickness, Day 15 / Left hind paw volume, Day 15: day 15 after administration; for Left front paw thickness, Day 19 / Right front paw thickness, Day 19 / Right hind paw thickness, Day 19 / Right hind paw volume, Day 19 / Left hind paw thickness, Day 19 / Left hind paw volume, Day 19: day 19 after administration
# Description: Experimental animal: Male Wistar rats. Body weights were about 150 g.
# Method of administration: intraperitoneal injection. The dose of wedelolactone was 0.25 mg/kg or 12.5 mg/kg, prepared in 0.5% CMC. The dose of methotrexate (MTX) is 0.2 mg/kg.
# Method of experiment: The animals were divided randomly into 4 groups based on their body weights. They were adapted for 3 days before experiments. The left hind planta of the rats were injected subcutaneously with 0.1 ml CFA emulsion to induce inflammation. On the Day 10, after the administration of the adjuvant, the rats were injected intraperitoneally with 5 ml/kg test compound wedelolactone for 19 continuous days. On and after the day of administration of the adjuvant, the change of thickness of the four rat paws was measured daily using a vernier caliper, and the volume of the back paw were measured using a Plethysmometer. The data from day 5, 10, 15, and 19 after administration were used for statistic analyses.
# [3] = test system: collagen-induced rat arthritis; test: Collagen-induced rat arthritis (joint surface temperature, inflammation score); type: in vivo, Male Wistar rats; conditions: for inflammation score, Day 10 / inflammation score, Day 20 / inflammation score, Day 30: highest total score 16 points; for Joint surface temperature difference (° C.), Day 10: day 10 after first immunization; for Joint surface temperature difference (° C.), Day 20: day 20 after first immunization; for Joint surface temperature difference (° C.), Day 30: day 30 after first immunization
# Description: (§1) Experimental animal: Male Wistar rats. Body weights were about 120 g.
# (§2) Administration method: intraperitoneal injection. The dose of wedelolactone is 6 or 12 mg/kg. Negative control used 0.5% CMC.
# Experimental methods: 1). Preparation of type-II collagen. The fresh calf cartilages were ground at 4° C., immersed and washed with Tris-HCL2. The left residue was digested with pepsin. The supernatant was collected and salted out, followed by chromatography with DE-52 column to obtain type-II collagen. The collagen were dissolved in glacial acetic acid and mixed with Freund's adjuvant by grounding. Each of the animals, except the controls, was subcutaneously injected with a total of 2.5 mg/kg collagen at multiple sites of the tail root and back neck. 7 days thereafter, the animals were boostered by subcutaneous administration with 1.0 mg/kg collagen in the tail root and back neck. The immunized animals were divided randomly into 4 groups based on their body weight, 10 mice in each group. The four groups were modeling blank group, modeling control group, low dose wedelolactone group, and high dose wedelolactone group. The daily administration started at day 10 after the first immunization for 3 weeks continuously. The effects of the drug on the rat rheumatoid arthritis and the delayed-hypersensitivity were recorded. Starting from day 10 after the first immunization, the following data were recorded every 10 days: A) arthritis surface temperature (the surface temperature of both hind leg joints were measured by using a digital temperature recorder, and the temperature differences before and after the immunization was calculated). B) arthritis score (arthritis was scored following the method described in the literature. 1 point: inflammation in one area of paws or planta; 2 points: inflammation in more than two areas of paws or planta; 3 points: mild inflammation in the whole legs; 4 points: severe inflammation causing joint rigidity, deformation and dysfunction. The highest score for each paw is 4 points. The highest total score for each rat is 16 points. C) Delayed-hypersensitivity measurement. At day 24, 10 μl type II collagen containing solution was injected subcutaneously in the back of the right ear of each rat. The thickness of the ear before and 48 hr after the injection was measured.
# [4] = test system: delayed hypersensitivity of the collagen II-induced arthritic rats; test: Delayed hypersensitivity of collagen II-induced arthritic rats; type: in vivo, Male Wistar rats; conditions: 48 hr after type II collagen injection
# Description: as §1, §2
# Experimental methods: 1). Preparation of type-II collagen. The fresh calf cartilages were ground at 4° C., immersed and washed with Tris-HCL2. The left residue was digested with pepsin. The supernatant was collected and salted out, followed by chromatography with DE-52 column to obtain type-II collagen. The collagen were dissolved in glacial acetic acid and mixed with Freund's adjuvant by grounding. Each of the animals, except the controls, was subcutaneously injected with a total of 2.5 mg/kg collagen at multiple sites of the tail root and back neck. […] The effects of the drug on the rat rheumatoid arthritis and the delayed-hypersensitivity were recorded. Starting from day 10 after the first immunization, the following data were recorded every 10 days: A) arthritis surface temperature (the surface temperature of both hind leg joints were measured by using a digital temperature recorder, and the temperature differences before and after the immunization was calculated). B) arthritis score (arthritis was scored following the method described in the literature. […] The thickness of the ear before and 48 hr after the injection was measured.
structure (smiles),measurement,setting,value
COc1cc(O)c2c(c1)oc(=O)c1c3cc(O)c(O)cc3oc21 [wedelolactone],Difference (mg) between left and right ear,[1]; 12.5 mg/kg i.p.,11.3 ± 3.6 mg
same,Difference (mg) between left and right ear,[1]; 25 mg/kg i.p.,10.9 ± 4.6 mg
same,Inhibition of mice ear inflammation caused by dimethylbenzene,[1]; 12.5 and 25 mg/kg i.p.,could inhibit the inflammation of the mice ear caused by dimethylbenzene
same,Primary inflammation of the left foot and secondary inflammation of the right foot (FIG. 4),[2]; 0.25 mg/kg,prone to be alleviated
same,"Left front paw thickness, Day 5",[2]; 0.25 mg/kg i.p.,4.20 ± 0.11 mm
same,"Right front paw thickness, Day 5",[2]; 0.25 mg/kg i.p.,4.13 ± 0.15 mm
same,"Right hind paw thickness, Day 5",[2]; 0.25 mg/kg i.p.,5.05 ± 0.24 mm
same,"Right hind paw volume, Day 5",[2]; 0.25 mg/kg i.p.,1.18 ± 0.05 mL
same,"Left hind paw thickness, Day 5",[2]; 0.25 mg/kg i.p.,7.10 ± 0.83 mm
same,"Left hind paw volume, Day 5",[2]; 0.25 mg/kg i.p.,1.85 ± 0.24 mL
same,"Left front paw thickness, Day 10",[2]; 0.25 mg/kg i.p.,4.71 ± 0.24 mm
same,"Right front paw thickness, Day 10",[2]; 0.25 mg/kg i.p.,4.66 ± 0.09 mm
same,"Right hind paw thickness, Day 10",[2]; 0.25 mg/kg i.p.,5.28 ± 0.38 mm
same,"Right hind paw volume, Day 10",[2]; 0.25 mg/kg i.p.,1.16 ± 0.08 mL
same,"Left hind paw thickness, Day 10",[2]; 0.25 mg/kg i.p.,8.18 ± 1.22 mm
same,"Left hind paw volume, Day 10",[2]; 0.25 mg/kg i.p.,2.38 ± 0.30 mL
same,"Left front paw thickness, Day 15",[2]; 0.25 mg/kg i.p.,4.61 ± 0.10 mm
same,"Right front paw thickness, Day 15",[2]; 0.25 mg/kg i.p.,4.54 ± 0.15 mm
same,"Right hind paw thickness, Day 15",[2]; 0.25 mg/kg i.p.,5.15 ± 0.35 mm
same,"Right hind paw volume, Day 15",[2]; 0.25 mg/kg i.p.,1.29 ± 0.13 mL
same,"Left hind paw thickness, Day 15",[2]; 0.25 mg/kg i.p.,8.51 ± 0.91 mm
same,"Left hind paw volume, Day 15",[2]; 0.25 mg/kg i.p.,2.63 ± 0.37 mL
same,"Left front paw thickness, Day 19",[2]; 0.25 mg/kg i.p.,4.64 ± 0.17 mm
same,"Right front paw thickness, Day 19",[2]; 0.25 mg/kg i.p.,4.59 ± 0.15 mm
same,"Right hind paw thickness, Day 19",[2]; 0.25 mg/kg i.p.,5.23 ± 0.23 mm
same,"Right hind paw volume, Day 19",[2]; 0.25 mg/kg i.p.,1.36 ± 0.12 mL
same,"Left hind paw thickness, Day 19",[2]; 0.25 mg/kg i.p.,8.49 ± 1.06 mm
same,"Left hind paw volume, Day 19",[2]; 0.25 mg/kg i.p.,2.61 ± 0.42 mL
same,Primary inflammation of the left foot and secondary inflammation of the right foot (FIG. 3),[2]; 12.5 mg/kg,alleviated
same,"Left front paw thickness, Day 5",[2]; 12.5 mg/kg i.p.,4.11 ± 0.11 mm
same,"Right front paw thickness, Day 5",[2]; 12.5 mg/kg i.p.,4.01 ± 0.17 mm
same,"Right hind paw thickness, Day 5",[2]; 12.5 mg/kg i.p.,4.95 ± 0.27 mm
same,"Right hind paw volume, Day 5",[2]; 12.5 mg/kg i.p.,1.10 ± 0.10 mL
same,"Left hind paw thickness, Day 5",[2]; 12.5 mg/kg i.p.,7.13 ± 0.96 mm
same,"Left hind paw volume, Day 5",[2]; 12.5 mg/kg i.p.,1.64 ± 0.31 mL
same,"Left front paw thickness, Day 10",[2]; 12.5 mg/kg i.p.,4.03 ± 0.13 mm
same,"Right front paw thickness, Day 10",[2]; 12.5 mg/kg i.p.,3.95 ± 0.12 mm
same,"Right hind paw thickness, Day 10",[2]; 12.5 mg/kg i.p.,5.05 ± 0.25 mm
same,"Right hind paw volume, Day 10",[2]; 12.5 mg/kg i.p.,1.03 ± 0.10 mL
same,"Left hind paw thickness, Day 10",[2]; 12.5 mg/kg i.p.,8.09 ± 1.05 mm
same,"Left hind paw volume, Day 10",[2]; 12.5 mg/kg i.p.,2.14 ± 0.45 mL
same,"Left front paw thickness, Day 15",[2]; 12.5 mg/kg i.p.,4.11 ± 0.16 mm
same,"Right front paw thickness, Day 15",[2]; 12.5 mg/kg i.p.,4.11 ± 0.16 mm
same,"Right hind paw thickness, Day 15",[2]; 12.5 mg/kg i.p.,5.20 ± 0.23 mm
same,"Right hind paw volume, Day 15",[2]; 12.5 mg/kg i.p.,1.24 ± 0.16 mL
same,"Left hind paw thickness, Day 15",[2]; 12.5 mg/kg i.p.,8.44 ± 1.63 mm
same,"Left hind paw volume, Day 15",[2]; 12.5 mg/kg i.p.,2.42 ± 0.62 mL
same,"Left front paw thickness, Day 19",[2]; 12.5 mg/kg i.p.,4.04 ± 0.14 mm
same,"Right front paw thickness, Day 19",[2]; 12.5 mg/kg i.p.,4.04 ± 0.07 mm
same,"Right hind paw thickness, Day 19",[2]; 12.5 mg/kg i.p.,4.98 ± 0.10 mm
same,"Right hind paw volume, Day 19",[2]; 12.5 mg/kg i.p.,1.19 ± 0.08 mL
same,"Left hind paw thickness, Day 19",[2]; 12.5 mg/kg i.p.,8.53 ± 1.33 mm
same,"Left hind paw volume, Day 19",[2]; 12.5 mg/kg i.p.,2.46 ± 0.75 mL
same,Inhibition of rat adjuvant arthritis,"[2]; 0.25 or 12.5 mg/kg i.p., 19 days",could effectively inhibit rat adjuvant arthritis
same,"inflammation score, Day 10",[3]; 6 mg/kg i.p.,4.00 ± 2.02
same,"Joint surface temperature difference (° C.), Day 10",[3]; 6 mg/kg i.p.,1.42 ± 0.74 °C
same,"inflammation score, Day 20",[3]; 6 mg/kg i.p.,3.10 ± 1.45
same,"Joint surface temperature difference (° C.), Day 20",[3]; 6 mg/kg i.p.,0.83 ± 0.44 °C
same,"inflammation score, Day 30",[3]; 6 mg/kg i.p.,2.7 ± 1.35
same,"Joint surface temperature difference (° C.), Day 30",[3]; 6 mg/kg i.p.,0.72 ± 0.40 °C
same,"inflammation score, Day 10",[3]; 12 mg/kg i.p.,4.10 ± 2.08
same,"Joint surface temperature difference (° C.), Day 10",[3]; 12 mg/kg i.p.,1.36 ± 0.50 °C
same,"inflammation score, Day 20",[3]; 12 mg/kg i.p.,2.00 ± 1.41
same,"Joint surface temperature difference (° C.), Day 20",[3]; 12 mg/kg i.p.,0.73 ± 0.45 °C
same,"inflammation score, Day 30",[3]; 12 mg/kg i.p.,1.40 ± 1.02
same,"Joint surface temperature difference (° C.), Day 30",[3]; 12 mg/kg i.p.,0.48 ± 0.39 °C
same,Inhibition of collagen-induced rat arthritis,"[3]; 6 or 12 mg/kg i.p., 3 weeks",can effectively inhibit the collagen-induced rat arthritis
same,Increased thickness of the right ear (mm),[4]; 6 mg/kg i.p.,0.231 ± 0.113 mm
same,Increased thickness of the right ear (mm),[4]; 12 mg/kg i.p.,0.194 ± 0.115 mm

# From US20070129426A1, “Therapeutic drugs for arthritis” (Shanghai Ambrosia Pharmaceutical Co., Ltd., priority 2003, published 2007)
